Paper PMC6270099, “Synthesis, Biological Evaluation, and Pharmacokinetic Study of Novel Liguzinediol Prodrugs” (Molecules, 2013)
Marks after values point to notes of the source that are not given here.

Columns and labels:
[1] = Pharmacokinetics of LZDO in rats after intragastric administration of prodrug 3; type: in vivo, rat; conditions: rats (data not shown)
Procedure: Pharmacokinetic parameters including half-life, clearance, and bioavailability are important properties of a drug candidate. […] The major pharmacokinetic parameters of LZDO were calculated using a noncompartment model based on statistical moment. The pharmacokinetic parameters of LZDO after intragastric administration of prodrug 3 at 10, 20 and 40 mg/kg in rats are summarized in Table 2. The pharmacokinetic parameters of LZDO after intragastric administering LZDO at 10, 20 and 50 mg/kg in rats are summarized in Table 3 [19]. Prodrug 3 was converted completely within 2 h in rats (data not shown).
Sprague-Dawley rats (male, weighing 200 ± 20 g) were obtained from Slack Laboratory Animal Site (Shanghai, China) and kept in an environmentally controlled breeding room for at least five days before experimentation. The rats were fasted overnight but with free access to water before the test. Animal welfare and experimental procedures were strictly in accordance with the guide for the care and use of laboratory animals. […] The collected blood samples were pretreated by the aforementioned method (sample dilutions were made when necessary) and the concentrations of LZDO and prodrug 3 in each sample were finally determined based on the validated HPLC method. […]

[2] = system: isolated Langendorff-perfused rat hearts; test: Ex vivo Langendorff-perfused rat heart, cardiac performance; conditions: for ∆% +dP/dtmax / ∆% LVDP / ∆% −dP/dtmax: increase vs. control; for LVDP: isolated rat heart, mean ± SD, n = 6
Procedure: The cardiac contractility and safety of prodrugs 3–5 were evaluated on the myocardium in normal isolated rat hearts with LZDO as a positive control. Prodrugs 3–5 exerted positive inotropic effects in a dose-dependent manner. The increased rate in left ventricular developed pressure (LVDP, accepted as contractile force), +dP/dtmax (used as an index of contractility), the maximum rate of pressure decrease of the left ventricle ([…], used as an index of diastolic function) and the heart rate (HR, used as an index of heart muscle oxygen consumption) of these compounds vs. control are listed in Table 1.
All commercial reagents and solvents were used without further purification unless otherwise specified. Melting points were determined using a model Buchi B-450 apparatus. ESI-MS were recorded on a TOF mass spectrometer (Applies-Biosystem Mariner). IR spectra were acquired by using a THERMO IR spectrometer Model Nicolet-100. ^1H- and ^13C-NMR spectra (500/125 MHz) were recorded on a Bruker Advance 500 spectrophotometer. Mass spectra were recorded on a ZAB-HS mass spectrometer and are reported as m/z values. HPLC analysis was conducted on a Waters 2695 HPLC instrument equipped with a UV detector (model 2489). LZDO and prodrugs 3–5 were analysed by HPLC, and their purity was confirmed to be greater than 98.0%. In vitro metabolic stability analysis was conducted by a HPLC method, using stock standard solutions of LZDO and prodrugs that were prepared in water at a concentration of 30 mM. The positive inotropic effects on the myocardium of LZDO and prodrugs 3–5 in vitro were evaluated on Langendorff-perfused hearts isolated from normal Sprague-Dawley rats. A HPLC method was applied to measure the rat plasma concentrations of LZDO and prodrug 3 after intragastric administration of prodrug 3 in the rats.
Sprague-Dawley adult male rats weighing 260–320 g were anaesthetised by intraperitoneal administration of 20% urethane (1.2 g/kg). The hearts were quickly removed and placed into an ice-cold modified buffer until contractions ceased. The heart was cleaned of surrounding tissues, mounted on the aortic cannula of the Langendorff perfusion system apparatus, and perfused with oxygenated buffer (mM): NaCl 117, KCl 5.7, CaCl2 1.8, MgCl2 1.7, NaHCO3 4.4, NaH2PO4 1.5, HEPES 20 and glucose 11. The buffer was equilibrated with 95% O2 and 5% CO2 and adjusted to pH 7.4 with NaOH before it entered the heart. An epicardial electrogram was registered using two stainless steel electrodes, one attached to the apex of the heart and the other to the aortic cannula. To obtain an isovolumetrically beating preparation, a latex balloon filled with water and connected by a catheter to a transducer was inserted through the left atrium into the left ventricle and inflated to provide an end-diastolic pressure between 8 and 12 mm Hg. Before each experimental protocol was initiated, the isolated hearts were set at a mean arterial pressure of 60–80 mm Hg and allowed to stabilise at 37 °C for 40–60 min. The isolated rat hearts were then perfused in sequence with 1, 10, and 100 μM of LZDO and prodrugs 3–5 in each group. A RM6240B/C four channel physiological recording instrument (Chengdu Instrument Factory, Chengdu, China) was used for continuous recording of LVSP, LVEDP, HR (derived from electrogram), +dP/dtmax and −dP/dtmax throughout the experiments. The criteria for established stability were LVDP > 50 mmHg, +dP/dtmax > 1,600 mmHg·s^−1, heart rate > 180 beats·min^−1 and normal sinus rhythm. The hearts were not studied if they had weak contractility (+dP/dtmax < 1,600 mmHg·s^−1) and severe arrhythmia. Diastolic balloon pressure was maintained at 8 mmHg. LVDP was calculated as the difference between the systolic and diastolic pressures. The results are expressed as the mean value of hemodynamic variables (n = 6). Statistical analysis was performed using SPSS for Windows (version 13.0). Data were analyzed by One-way ANOVA. […]

For `CC(=O)OCc1nc(C)c(COC(C)=O)nc1C` [compound 3], the “time to complete conversion of prodrug in rats” value [1] was ≤ 2 h, the “+dP/dtmax” value ([2]; 1 μM) was 1,641 ± 29 mmHg/s and the HR ([2]; 1 μM) was 203 ± 15 beat·min^−1. For the same compound, the “−dP/dtmax” value ([2]; 1 μM) was −1,139 ± 76 mmHg/s, the “∆% +dP/dtmax” value ([2]; 1 μM) was 1.9 ± 0.5% and the “∆% LVDP” value ([2]; 1 μM) was 15.0 ± 5.5%. The “∆% −dP/dtmax” value ([2]; 1 μM) was 4.9 ± 5.9%, the LVDP ([2]; 1 μM) was 63 ± 2 ^b mmHg and the “+dP/dtmax” value ([2]; 10 μM) was 1,768 ± 91 ^bd mmHg/s. The HR ([2]; 10 μM) was 204 ± 14 beat·min^−1, the “−dP/dtmax” value ([2]; 10 μM) was −1,184 ± 75 ^a mmHg/s and the “∆% +dP/dtmax” value ([2]; 10 μM) was 9.8 ± 7.0%. For the same compound, the “∆% LVDP” value ([2]; 10 μM) was 26.3 ± 7.7%, the “∆% −dP/dtmax” value ([2]; 10 μM) was 9.0 ± 5.1% and the LVDP ([2]; 10 μM) was 69 ± 1.1 ^bd mmHg. For the same compound, the “+dP/dtmax” value ([2]; 100 μM) was 2,123 ± 82 ^bdf mmHg/s, the HR ([2]; 100 μM) was 205 ± 26 beat·min^−1 and the “−dP/dtmax” value ([2]; 100 μM) was −1,313 ± 70 ^bdf mmHg/s. For the same compound, the “∆% +dP/dtmax” value ([2]; 100 μM) was 31.8 ± 5.3%, the “∆% LVDP” value ([2]; 100 μM) was 44.7 ± 6.6% and the “∆% −dP/dtmax” value ([2]; 100 μM) was 20.9 ± 5.1%. The LVDP ([2]; 100 μM) was 79 ± 1.6 ^bdf mmHg and the “positive inotropic effect on the myocardium” value ([2]; normal isolated rat hearts, 1, 10, 100 μM) was “most potent prodrug”.
For `Cc1nc(COC(=O)C(C)C)c(C)nc1COC(=O)C(C)C` [compound 4, 2,5-Di-iso-butyryloxymethyl-3,6-dimethylpyrazine], the “+dP/dtmax” value ([2]; 1 μM) was 1,669 ± 103 mmHg/s, the HR ([2]; 1 μM) was 213 ± 46 beat·min^−1 and the “−dP/dtmax” value ([2]; 1 μM) was −1,101 ± 102 mmHg/s. For the same compound, the “∆% +dP/dtmax” value ([2]; 1 μM) was 2.2 ± 3.4%, the “∆% LVDP” value ([2]; 1 μM) was 17.4 ± 9.8% and the “∆% −dP/dtmax” value ([2]; 1 μM) was 5.6 ± 8.3%. The LVDP ([2]; 1 μM) was 63 ± 3 ^b mmHg, the “+dP/dtmax” value ([2]; 10 μM) was 1,765 ± 52 ^a mmHg/s and the HR ([2]; 10 μM) was 196 ± 16 beat·min^−1. For the same compound, the “−dP/dtmax” value ([2]; 10 μM) was −1,196 ± 54 ^bc mmHg/s, the “∆% +dP/dtmax” value ([2]; 10 μM) was 4.9 ± 5.4% and the “∆% LVDP” value ([2]; 10 μM) was 14.2 ± 10.0%. For the same compound, the “∆% −dP/dtmax” value ([2]; 10 μM) was 9.9 ± 9.5%, the LVDP ([2]; 10 μM) was 60 ± 4 ^a mmHg and the “+dP/dtmax” value ([2]; 100 μM) was 1,952 ± 49 ^bdf mmHg/s. The HR ([2]; 100 μM) was 191 ± 29 beat·min^−1, the “−dP/dtmax” value ([2]; 100 μM) was −1,399 ± 61 ^bdf mmHg/s and the “∆% +dP/dtmax” value ([2]; 100 μM) was 9.0 ± 8.9%. The “∆% −dP/dtmax” value ([2]; 100 μM) was 16.7± 15.2% and the LVDP ([2]; 100 μM) was 73 ± 2.3 ^bdf mmHg.
With `Cc1nc(COC(=O)c2ccccc2)c(C)nc1COC(=O)c1ccccc1` [compound 5, 2,5-Dibenzoyloxymethyl-3,6-dimethylpyrazine] the “+dP/dtmax” value ([2]; 1 μM) was 1,688 ± 95 mmHg/s, the HR ([2]; 1 μM) was 189 ± 30 beat·min^−1 and the “−dP/dtmax” value ([2]; 1 μM) was −1,095 ± 45 mmHg/s. The “∆% +dP/dtmax” value ([2]; 1 μM) was 1.0 ± 1.1%, the “∆% LVDP” value ([2]; 1 μM) was 5.3 ± 3.3% and the “∆% −dP/dtmax” value ([2]; 1 μM) was 1.3 ± 0.8%. For the same compound, the LVDP ([2]; 1 μM) was 55 ± 5 mmHg, the “+dP/dtmax” value ([2]; 10 μM) was 1,831 ± 14 ^bd mmHg/s and the HR ([2]; 10 μM) was 196 ± 40 beat·min^−1. For the same compound, the “−dP/dtmax” value ([2]; 10 μM) was −1,245 ± 48 ^bd mmHg/s, the “∆% +dP/dtmax” value ([2]; 10 μM) was 9.9 ± 5.9% and the “∆% LVDP” value ([2]; 10 μM) was 13.9 ± 7.4%. For the same compound, the “∆% −dP/dtmax” value ([2]; 10 μM) was 15.3 ± 2.8%, the LVDP ([2]; 10 μM) was 59 ± 2.5 ^b mmHg and the “+dP/dtmax” value ([2]; 100 μM) was 1,962 ± 70 ^bdf mmHg/s. For the same compound, the HR ([2]; 100 μM) was 213 ± 41 beat·min^−1, the “−dP/dtmax” value ([2]; 100 μM) was −1,314 ± 63 ^bde mmHg/s and the “∆% +dP/dtmax” value ([2]; 100 μM) was 17.6 ± 6.8%. The “∆% LVDP” value ([2]; 100 μM) was 24.5 ± 11.2%, the “∆% −dP/dtmax” value ([2]; 100 μM) was 21.7 ± 7.2% and the LVDP ([2]; 100 μM) was 64 ± 2.4 ^bde mmHg.
